Counter-ions that a name gives are not always drawn.
Structure (SMILES) | melting point
Cl.O=C(Nc1ccc(C(=O)C2CCCNC2)cc1)c1ccc(-c2ccc(Cl)cc2)cc1 (stereo not drawn) | 222 to 225 °C (dec.)
Cl.O=C(Nc1ccc(C(O)C2CCCNC2)cc1)c1ccc(-c2ccc(Cl)cc2)cc1 (stereo not drawn) | 195 °C (dec.)
Cl.O=C(Nc1ccc(CC2CCCNC2)cc1)c1ccc(-c2ccccc2)cc1 (stereo not drawn) | 218 to 220 °C (dec.)
Cl.O=C(Nc1ccc(CC2CCCNC2)cc1)c1ccc(-c2ccc(F)cc2)cc1 (stereo not drawn) | 205 °C (dec.)
Cl.O=C(Nc1ccc(CC2CCCNC2)cc1)c1ccc(-c2ccc(Cl)cc2)cc1 (stereo not drawn) | 200 °C (dec.)
CN(C)CC1CCc2cc(NC(=O)c3ccc(-c4ccc(-c5ccccc5)cc4)cc3)ccc2C1.Cl (stereo not drawn) | 220 °C (dec.)
CN(C)CC1CCc2cc(NS(=O)(=O)c3ccc(-c4ccccc4)cc3)ccc2C1.Cl (stereo not drawn) | 168 to 170 °C
CN(C(=O)c1ccc(-c2ccc(F)cc2)cc1)c1ccc2c(c1)CCC(CN1CCCC1)=C2 (as salt: hydrochloride) [Example 226, 4′-Fluoro-N-methyl-N-[6-(1-pyrrolidinylmethyl)-7,8-dihydro-2-naphthalenyl][1,1′-biphenyl]-4-carboxamide Hydrochloride] | 201 to 203 °C
CN(C)CC1=Cc2ccc(NC(=O)c3ccc(-c4ccccc4)cc3)cc2C1 (hydrate or solvate) [Example 244, N-[2-[(Dimethylamino)methyl]-1H-inden-6-yl][1,1′-biphenyl]-4-carboxamide] | 187 to 189 °C
CN(C)CC1CCc2cc(NC(=O)c3ccc(C(=O)c4ccccc4)cc3)ccc2C1 (stereo not drawn) [Example 2, 4-Benzoyl-N-[2-(N,N-dimethylamino)methyl-6-tetralinyl]benzamide] | 193 to 196 °C
CN(C)CC1CCc2cc(NC(=O)c3ccc(N4C(=O)c5ccccc5C4=O)cc3)ccc2C1 (stereo not drawn) [Example 3, N-[2-(N,N-Dimethylamino)methyl-6-tetralinyl]-4-(1,3-dioxo-1,3-dihydro-2H-isoindol-2-yl) benzamide] | 235 to 240 °C
CN(C)CC1CCc2cc(NC(=O)c3ccc(OCc4ccccc4)cc3)ccc2C1 (stereo not drawn) [Example 5, 4-(Benzyloxy)-N-[2-(N,N-dimethylamino)methyl-6-tetralinyl]benzamide] | 135 to 136 °C
CN(C)CC1CCc2cc(NC(=O)c3ccc4c(c3)C(=O)c3ccccc3-4)ccc2C1 (stereo not drawn) [Example 6, N-[2-(N,N-Dimethylamino)methyl-6-tetralinyl]-9-oxo-9H-fluoren-2-carboxamide] | 224 to 226 °C
CN(C)CC1CCc2cc(NC(=O)c3ccc4c(c3)S(=O)(=O)c3ccccc3C4=O)ccc2C1 (stereo not drawn) [Example 7, N-[2-(N,N-Dimethylamino)methyl-6-tetralinyl]-9,10,10-trioxo-9,10-dihydro-101^6-thioxanthene-3-carboxamide] | 222 to 223 °C (dec.)
CN(C)CC1CCc2cc(NC(=O)c3ccc(NC(=O)Nc4ccccc4)cc3)ccc2C1 (stereo not drawn) [Example 8, (4-Anilinocarbonyl)amino-N-[2-(N,N-dimethylamino)methyl-6-tetralinyl]benzamide] | 216 to 217 °C (dec.)
CN(C)CC1CCc2cc(NC(=O)c3ccc(Oc4ccccc4)cc3)ccc2C1 (stereo not drawn) [Example 9, N-[2-(N,N-Dimethylamino)methyl-6-tetralinyl]-4-phenoxy benzamide] | 137 to 139 °C
CN(C)CC1CCc2cc(NC(=O)c3ccc(C(=O)Nc4ccccc4)cc3)ccc2C1 (stereo not drawn) [Example 10, N^1-[2-(N,N-Dimethylamino)methyl-6-tetralinyl]-N^4-phenyl terephthalamide] | 238 to 240 °C (dec.)
CCc1ccc(-c2ccc(C(=O)Nc3ccc4c(c3)CCC(CN(C)C)C4)cc2)cc1 (stereo not drawn) [Example 11, (4′-Ethylbiphenyl-4-yl)-N-[2-(N,N-dimethylamino)methyl-6-tetralinyl]carboxamide] | 137 to 138 °C
CN(C)CC1CCc2cc(NC(=O)c3ccc(-c4ccc(Cl)cc4)cc3)ccc2C1 (stereo not drawn) [Example 12, (4′-Chlorobiphenyl-4-yl)-N-[2-(N,N-dimethylamino)methyl-6-tetralinyl]carboxamide] | 187 to 189 °C
CN(C)CC1CCc2cc(NC(=O)c3ccc(-c4ccc5c(c4)OCO5)cc3)ccc2C1 (stereo not drawn) [Example 14] | 174 to 176 °C
CN(C)CC1CCc2cc(NC(=O)c3ccc(-c4ccc(Cl)c(Cl)c4)cc3)ccc2C1 (stereo not drawn) [Example 16, 3′,4′-Dichloro-N-[6-[(N,N-dimethylamino)methyl]-5,6,7,8-tetrahydro-2-naphthalenyl][1,1′-biphenyl]-4-carboxamide] | 143 to 145 °C
CN(C)CC1CCc2cc(NC(=O)c3ccc(-c4ccc([O-])cc4)cc3)ccc2C1.[Na+] (stereo not drawn) [Example 19, Sodium salt of N-[6-[(N,N-dimethylamino)methyl]-5,6,7,8-tetrahydro-2-naphthalenyl]-4′-oxy[1,1′-biphenyl]-4-carboxamide] | 246 to 248 °C
CN(C)CC1CCc2cc(NC(=O)c3ccc(-c4ccc(C=O)cc4)cc3)ccc2C1 (stereo not drawn) [Example 20, N-[6-[(N,N-Dimethylamino)methyl]-5,6,7,8-tetrahydro-2-naphthalenyl]-4′-formyl[1,1′-biphenyl]-4-carboxamide] | 130 to 132 °C
CN(C)CC1CCc2cc(NC(=O)c3ccc(-c4ccc(CO)cc4)cc3)ccc2C1 (stereo not drawn) [Example 21, N-[6-[(N,N-Dimethylamino)methyl]-5,6,7,8-tetrahydro-2-naphthalenyl]-4′-(hydroxymethyl)[1,1′-biphenyl]-4-carboxamide] | 138 to 139 °C
CCCc1ccc(-c2ccc(C(=O)Nc3ccc4c(c3)CCC(CN(C)C)C4)cc2)cc1 (stereo not drawn) [Example 22, N-[6-[(N,N-Dimethylamino)methyl]-5,6,7,8-tetrahydro-2-naphthalenyl]-4′-propyl[1,1′-biphenyl]-4-carboxamide] | 186 to 188 °C
Cc1cc(Br)ccc1C(=O)Nc1ccc2c(c1)CCC(CN(C)C)C2 (stereo not drawn) [Example 24, 4-Bromo-N-[6-[(N,N-dimethylamino)methyl]-5,6,7,8-tetrahydro-2-naphthalenyl]-2-methylbenzamide] | 140 to 142 °C
Cc1cc(C(=O)Nc2ccc3c(c2)CCC(CN(C)C)C3)ccc1Br (stereo not drawn) [Example 25, 4-Bromo-N-[6[(N,N-dimethylamino)methyl]-5,6,7,8-tetrahydro-2-naphthalenyl]-3-methylbenzamide] | 154 to 155 °C
CN(C)CC1CCc2cc(NC(=O)c3ccc(-c4ccc(Cl)cc4)cc3Cl)ccc2C1 (stereo not drawn) [Example 26, 3,4′-Dichloro-N-[6-[(N,N-dimethylamino)methyl]-5,6,7,8-tetrahydro-2-naphthalenyl][1,1′-biphenyl]-4-carboxamide] | 177 to 179 °C
Cc1cc(-c2ccc(Cl)cc2)ccc1C(=O)Nc1ccc2c(c1)CCC(CN(C)C)C2 (stereo not drawn) [Example 27, 4′-Chloro-N-[6-[(N,N-dimethylamino)methyl]-5,6,7,8-tetrahydro-2-naphthalenyl]-3-methyl[1,1′-biphenyl]-4-carboxamide] | 163 to 165 °C
Cc1cc(C(=O)Nc2ccc3c(c2)CCC(CN(C)C)C3)ccc1-c1ccc(Cl)cc1 (stereo not drawn) [Example 28, 4′-Chloro-N-[6-[(N,N-dimethylamino)methyl]-5,6,7,8-tetrahydro-2-naphthalenyl]-2-methyl[1,1′-biphenyl]-4-carboxamide] | 193 to 195 °C

Source: US7115750B1, “Melanin concentrating hormone antagonist” (Takeda Pharmaceutical Company Limited, priority 1999, dated 2006)
